This note sets out measurements from article PMC11596536, “Unveiling the Anticancer Potential of a New Ciprofloxacin-Chalcone Hybrid as an Inhibitor of Topoisomerases I & II and Apoptotic Inducer” (Molecules, 2024).

What is called IC50 is the midpoint of a concentration-inhibition curve. Read a low IC50 as higher potency.

Structures are written as SMILES.

The test has as its target T1, Topoisomerase I (Homo sapiens, UniProt P11387).
T1 construct: gene TOP1
T1 sequence (P11387 2-765): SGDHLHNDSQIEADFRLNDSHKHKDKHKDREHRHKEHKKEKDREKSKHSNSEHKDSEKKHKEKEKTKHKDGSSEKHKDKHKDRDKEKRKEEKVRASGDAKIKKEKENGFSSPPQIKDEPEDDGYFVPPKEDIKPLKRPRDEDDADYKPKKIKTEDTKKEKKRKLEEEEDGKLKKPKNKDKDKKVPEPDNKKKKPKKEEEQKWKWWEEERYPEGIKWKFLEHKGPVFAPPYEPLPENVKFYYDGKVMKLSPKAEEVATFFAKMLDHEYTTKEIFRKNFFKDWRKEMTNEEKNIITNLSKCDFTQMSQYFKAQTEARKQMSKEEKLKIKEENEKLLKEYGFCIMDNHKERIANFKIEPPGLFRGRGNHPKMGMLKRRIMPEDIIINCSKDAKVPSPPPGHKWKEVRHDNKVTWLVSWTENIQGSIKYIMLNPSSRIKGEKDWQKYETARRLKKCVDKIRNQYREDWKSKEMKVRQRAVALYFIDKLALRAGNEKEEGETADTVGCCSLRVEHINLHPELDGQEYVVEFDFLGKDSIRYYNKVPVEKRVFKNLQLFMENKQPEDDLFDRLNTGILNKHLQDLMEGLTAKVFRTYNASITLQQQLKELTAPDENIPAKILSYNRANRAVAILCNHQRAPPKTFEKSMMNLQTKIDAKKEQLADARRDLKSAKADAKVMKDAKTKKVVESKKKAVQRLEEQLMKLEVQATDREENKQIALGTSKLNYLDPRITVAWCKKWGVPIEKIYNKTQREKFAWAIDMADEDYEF
In words: Topo I DNA relaxation assay (commercial kit), agarose gel electrophoresis. It is filed as biochemical.

With `O=C(/C=C/c1ccc(Cl)cc1)c1ccc(NC(=O)N2CCN(c3cc4c(cc3F)c(=O)c(C(=O)O)cn4C3CC3)CC2)cc1` [compound 2, 7-(4-((4-(3-(4-Chlorophenyl)acryloyl)phenyl)carbamoyl)piperazin-1-yl)-1-cyclopropyl-6-fluoro-4-oxo-1,4-dihydroquinoline-3-carboxylic acid], the IC50 amounted to 37.5 µM.
